Results published in PubChem BioAssay (NCI).
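48-hour exposure; five concentrations; linearly interpolated endpoints. GI50 = concentration required for 50% inhibition of growth. Definition used: TGI = concentration required for complete inhibition of growth.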

Assays:
Assay in all cases: NCI tumour cell line growth inhibition, 48 h
NCI-H226 lung = tested on: NCI-H226 lung
NCI-H23 lung = tested on: NCI-H23 lung
NCI-H460 lung = tested on: NCI-H460 lung
NCI-H522 lung = tested on: NCI-H522 lung
NCI/ADR-RES ovarian = tested on: NCI/ADR-RES ovarian
OVCAR-3 ovarian = tested on: OVCAR-3 ovarian
OVCAR-4 ovarian = tested on: OVCAR-4 ovarian
OVCAR-5 ovarian = tested on: OVCAR-5 ovarian
OVCAR-8 ovarian = tested on: OVCAR-8 ovarian
PC-3 prostate = tested on: PC-3 prostate
RPMI-8226 leukemia = tested on: RPMI-8226 leukemia
RXF 393 renal = tested on: RXF 393 renal
SF-268 CNS = tested on: SF-268 CNS
SF-295 CNS = tested on: SF-295 CNS
SF-539 CNS = tested on: SF-539 CNS
SK-MEL-28 melanoma = tested on: SK-MEL-28 melanoma
SK-MEL-5 melanoma = tested on: SK-MEL-5 melanoma
SK-OV-3 ovarian = tested on: SK-OV-3 ovarian
SN12C renal = tested on: SN12C renal
SNB-19 CNS = tested on: SNB-19 CNS
SNB-75 CNS = tested on: SNB-75 CNS
SR leukemia = tested on: SR leukemia
SW-620 colon = tested on: SW-620 colon
T-47D breast = tested on: T-47D breast
TK-10 renal = tested on: TK-10 renal
U251 CNS = tested on: U251 CNS
UACC-257 melanoma = tested on: UACC-257 melanoma
UACC-62 melanoma = tested on: UACC-62 melanoma
UO-31 renal = tested on: UO-31 renal

SMILES: CN(c1ccc(Cl)c(Cl)c1)c1cnc2cc(N)cc(N)c2n1
- TGI (NCI-H226 lung): 33.9 µM
- GI50 (NCI-H23 lung): 2.11 µM
- TGI (NCI-H23 lung): 4.47 µM
- GI50 (NCI-H460 lung): 14.2 µM
- TGI (NCI-H460 lung): 52.1 µM
- GI50 (NCI-H522 lung): 2.58 µM
- TGI (NCI-H522 lung): 6.5 µM
- GI50 (NCI/ADR-RES ovarian): 10.6 µM
- TGI (NCI/ADR-RES ovarian): 30.1 µM
- GI50 (OVCAR-3 ovarian): 2.36 µM
- TGI (OVCAR-3 ovarian): 10.9 µM
- GI50 (OVCAR-4 ovarian): 1.71 µM
- TGI (OVCAR-4 ovarian): 3.32 µM
- GI50 (OVCAR-5 ovarian): 15.7 µM
- TGI (OVCAR-5 ovarian): 30.5 µM
- GI50 (OVCAR-8 ovarian): 3.48 µM
- TGI (OVCAR-8 ovarian): 15.4 µM
- GI50 (PC-3 prostate): 4.15 µM
- TGI (PC-3 prostate): 18.1 µM
- GI50 (RPMI-8226 leukemia): 3.65 µM
- TGI (RPMI-8226 leukemia): 26 µM
- GI50 (RXF 393 renal): 4.19 µM
- TGI (RXF 393 renal): 40.3 µM
- GI50 (SF-268 CNS): 4.62 µM
- TGI (SF-268 CNS): 25 µM
- GI50 (SF-295 CNS): 3.58 µM
- TGI (SF-295 CNS): 12.4 µM
- GI50 (SF-539 CNS): 4.71 µM
- TGI (SF-539 CNS): 17 µM
- GI50 (SK-MEL-28 melanoma): 2.98 µM
- TGI (SK-MEL-28 melanoma): 8.06 µM
- GI50 (SK-MEL-5 melanoma): 1.96 µM
- TGI (SK-MEL-5 melanoma): 3.71 µM
- GI50 (SK-OV-3 ovarian): 13.6 µM
- TGI (SK-OV-3 ovarian): 37.8 µM
- GI50 (SN12C renal): 1.75 µM
- TGI (SN12C renal): 3.27 µM
- GI50 (SNB-19 CNS): 3.75 µM
- TGI (SNB-19 CNS): 15.1 µM
- GI50 (SNB-75 CNS): 3.34 µM
- TGI (SNB-75 CNS): 9.57 µM
- GI50 (SR leukemia): 3.77 µM
- TGI (SR leukemia): > 100 µM
- GI50 (SW-620 colon): 2.04 µM
- TGI (SW-620 colon): 4.34 µM
- GI50 (T-47D breast): 2.45 µM
- TGI (T-47D breast): 8.95 µM
- GI50 (TK-10 renal): 13.2 µM
- TGI (TK-10 renal): 27.7 µM
- GI50 (U251 CNS): 2.62 µM
- TGI (U251 CNS): 6.86 µM
- GI50 (UACC-257 melanoma): 1.81 µM
- TGI (UACC-257 melanoma): 3.59 µM
- GI50 (UACC-62 melanoma): 2.25 µM
- TGI (UACC-62 melanoma): 4.43 µM
- GI50 (UO-31 renal): 3.4 µM
- TGI (UO-31 renal): 16.6 µM
